In ChEMBL document CHEMBL5365451, “Discovery of CVN417, a Novel Brain-Penetrant α6-Containing Nicotinic Receptor Antagonist for the Modulation of Motor Dysfunction” (J Med Chem, 2023):

Assays:
[1] = biological target: Neuronal acetylcholine receptor; alpha3/beta4 (Homo sapiens, UniProt P30926+P32297); assay: Antagonist activity at human alpha3/beta4 nAChR expressed in HEK293 cells assessed as nicotine-induced intracellular calcium release incubated for 15 mins by FLIPR analysis; type: cell-based
[2] = Oral bioavailability in Sprague-Dawley rat 3 mg/kg by LC-MS/MS analysis; type: ADME, organism-based; conditions: in vivo
[3] = Antagonist activity at human alpha6-alpha3/beta2/beta3 V273S mutant nAChR expressed in HEK293 cells assessed as nicotine-induced intracellular calcium release incubated for 15 mins by FLIPR analysis; type: cell-based; conditions: HEK293, 0.25 h
[4] = Intrinsic clearance in Sprague-Dawley rat at 0.5 mg/kg, iv by LC-MS/MS analysis; type: ADME, organism-based; conditions: in vivo
[5] = Volume of distribution at steady state in Sprague-Dawley rat at 0.5 mg/kg, iv by LC-MS/MS analysis; type: ADME, organism-based; conditions: in vivo, read-out: Vdss
[6] = Drug exposure in Sprague-Dawley rat brain at 3 mg/kg, po measured for 2 hrs by LC-MS/MS analysis; type: ADME, organism-based; conditions: read-out: Drug uptake
[7] = biological target: Neuronal acetylcholine receptor; alpha4/beta2 (Homo sapiens, UniProt P17787+P43681); assay: Antagonist activity at human alpha4/beta2 nAChR expressed in HEK293 cells assessed as nicotine-induced intracellular calcium release incubated for 15 mins by FLIPR analysis; type: cell-based
[8] = Metabolic stability in rat liver microsome assessed as clearance at 10 uM incubated upto 2 hrs by LC-MS/MS analysis; type: ADME; conditions: liver microsomes, read-out: CLH
[9] = Metabolic stability in human liver microsome assessed as clearance at 10 uM incubated upto 2 hrs by LC-MS/MS analysis; type: ADME; conditions: liver microsomes, read-out: CLH
[10] = Metabolic stability in rat liver microsome assessed as clearance preincubated for 60 mins followed by NADPH addition and measured after 60 mins by LC-MS/MS analysis; type: ADME; conditions: liver microsomes, time 120 min, read-out: CLH
[11] = Metabolic stability in human liver microsome assessed as clearance preincubated for 60 mins followed by NADPH addition and measured after 60 mins by LC-MS/MS analysis; type: ADME; conditions: liver microsomes, time 120 min, read-out: CLH

Sequence of Neuronal acetylcholine receptor; alpha3/beta4 (P30926 whole entry): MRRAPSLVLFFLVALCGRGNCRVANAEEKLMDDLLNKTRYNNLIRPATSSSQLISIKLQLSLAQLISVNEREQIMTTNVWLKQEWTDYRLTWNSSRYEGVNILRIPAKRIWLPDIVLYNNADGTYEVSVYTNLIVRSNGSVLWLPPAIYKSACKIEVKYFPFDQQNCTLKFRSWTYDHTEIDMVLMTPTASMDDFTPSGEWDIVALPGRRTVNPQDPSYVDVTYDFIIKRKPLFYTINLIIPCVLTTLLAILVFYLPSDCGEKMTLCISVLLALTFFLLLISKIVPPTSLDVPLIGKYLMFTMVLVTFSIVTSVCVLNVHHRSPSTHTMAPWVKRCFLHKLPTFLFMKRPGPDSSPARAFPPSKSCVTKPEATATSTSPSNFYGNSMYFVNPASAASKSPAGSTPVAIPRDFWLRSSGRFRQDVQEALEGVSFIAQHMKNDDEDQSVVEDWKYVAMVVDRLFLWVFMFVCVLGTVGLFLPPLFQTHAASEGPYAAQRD
Sequence of Neuronal acetylcholine receptor; alpha3/beta4 (P32297 whole entry): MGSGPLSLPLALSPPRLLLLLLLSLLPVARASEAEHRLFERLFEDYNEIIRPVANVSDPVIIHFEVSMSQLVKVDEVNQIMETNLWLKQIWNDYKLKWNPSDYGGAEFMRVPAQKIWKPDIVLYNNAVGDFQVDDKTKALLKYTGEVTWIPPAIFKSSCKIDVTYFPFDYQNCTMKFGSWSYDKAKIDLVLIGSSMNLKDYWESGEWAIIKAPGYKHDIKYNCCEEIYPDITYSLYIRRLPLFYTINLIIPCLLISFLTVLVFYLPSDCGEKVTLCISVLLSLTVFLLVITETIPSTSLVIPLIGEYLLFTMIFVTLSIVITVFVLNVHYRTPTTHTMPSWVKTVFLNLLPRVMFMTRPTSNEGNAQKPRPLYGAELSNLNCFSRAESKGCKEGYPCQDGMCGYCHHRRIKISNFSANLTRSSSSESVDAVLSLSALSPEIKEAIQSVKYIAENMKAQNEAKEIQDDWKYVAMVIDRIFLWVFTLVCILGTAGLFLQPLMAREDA
Sequence of Neuronal acetylcholine receptor; alpha4/beta2 (P17787 whole entry): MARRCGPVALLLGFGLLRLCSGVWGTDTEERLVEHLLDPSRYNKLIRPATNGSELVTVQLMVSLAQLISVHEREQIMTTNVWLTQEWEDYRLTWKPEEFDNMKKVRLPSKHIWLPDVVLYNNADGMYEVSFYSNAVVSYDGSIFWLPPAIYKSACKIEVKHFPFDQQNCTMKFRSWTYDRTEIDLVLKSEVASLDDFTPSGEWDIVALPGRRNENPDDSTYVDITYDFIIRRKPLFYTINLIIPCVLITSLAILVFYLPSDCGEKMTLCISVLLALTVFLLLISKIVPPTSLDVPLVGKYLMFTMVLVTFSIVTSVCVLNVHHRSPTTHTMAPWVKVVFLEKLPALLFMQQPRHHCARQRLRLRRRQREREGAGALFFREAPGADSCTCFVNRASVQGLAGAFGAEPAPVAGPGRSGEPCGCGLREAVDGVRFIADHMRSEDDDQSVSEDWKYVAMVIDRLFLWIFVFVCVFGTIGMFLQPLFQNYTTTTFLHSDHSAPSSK
Sequence of Neuronal acetylcholine receptor; alpha4/beta2 (P43681 whole entry): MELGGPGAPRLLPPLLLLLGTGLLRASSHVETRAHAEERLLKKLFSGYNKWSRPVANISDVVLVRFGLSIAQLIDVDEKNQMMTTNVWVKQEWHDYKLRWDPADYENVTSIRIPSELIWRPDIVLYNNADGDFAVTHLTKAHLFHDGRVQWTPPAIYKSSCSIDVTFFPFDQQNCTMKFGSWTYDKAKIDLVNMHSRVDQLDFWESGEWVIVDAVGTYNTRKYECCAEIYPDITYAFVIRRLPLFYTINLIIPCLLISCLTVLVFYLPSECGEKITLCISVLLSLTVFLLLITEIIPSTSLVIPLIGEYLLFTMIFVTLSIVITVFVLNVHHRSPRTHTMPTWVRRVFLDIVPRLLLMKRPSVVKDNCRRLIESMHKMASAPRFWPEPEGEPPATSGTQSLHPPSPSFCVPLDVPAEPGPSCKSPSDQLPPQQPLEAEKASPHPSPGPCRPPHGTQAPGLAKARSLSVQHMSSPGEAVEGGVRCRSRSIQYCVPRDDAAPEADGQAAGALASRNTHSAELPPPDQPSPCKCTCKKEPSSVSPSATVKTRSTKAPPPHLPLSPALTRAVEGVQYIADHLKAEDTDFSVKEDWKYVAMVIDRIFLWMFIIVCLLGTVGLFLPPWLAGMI

Row | Structure (SMILES) | IC50 [1] | bioavailability [2] | IC50 [3] | CL [4] | Vd [5] | concentration at 2 h [6] | IC50 [7] | microsomal CLint at 10 µM [8] | microsomal CLint at 10 µM [9] | microsomal CLint [10] | microsomal CLint [11]
1 | COc1ccc(-c2cc(C(=O)N[C@H]3CN(C)CCC3(F)F)nn2C)c(Cl)c1 | – | – | 115 nM | – | – | – | – | 204 µL/min/mg | 75.5 µL/min/mg | – | –
2 | CN1CCC[C@@H](NC(=O)c2cc(-c3ccc(C(F)(F)F)cc3Cl)n(C)n2)C1 | – | – | 76 nM | – | – | – | – | – | – | – | –
3 | Cn1nc(C(=O)NCC2CCCOC2)cc1-c1ccc(C(F)(F)F)cc1 (racemic) | – | – | 3290 nM | – | – | – | – | – | – | – | –

Next, values leading:

Row | IC50 [1] | bioavailability [2] | IC50 [3] | CL [4] | Vd [5] | concentration at 2 h [6] | IC50 [7] | microsomal CLint at 10 µM [8] | microsomal CLint at 10 µM [9] | microsomal CLint [10] | microsomal CLint [11] | Structure (SMILES)
4 | 4.96 µM | 70.1% | 139 nM | 41.5 mL/min/kg | 25.7 L/kg | 2970 nM | 1040 nM | – | – | – | – | CN1CCC(NC(=O)c2cc(-c3ccc(C(F)(F)F)cc3)n(C)n2)CC1
5 | 6.25 µM | 86.6% | 133 nM | 20.4 mL/min/kg | 23.4 L/kg | 140 nM | 993 nM | – | – | 3.2 µL/min/mg | 1.2 µL/min/mg | CN1[C@@H]2CCC[C@H]1C[C@H](NC(=O)c1cc(-c3ccc(C(F)(F)F)cc3)n(C)n1)C2
